Test results as given in patent publication US20080286213A1, “Pharmaceuticals for treating or preventing oral diseases” (HAWLEY & HAZEL (BVI) COMPANY LIMITED, priority 2007, published 2008).

How the values were obtained:
IL-6 (interleukin) = assay: LUMINEX liquid-phase chip analysis of KB cell supernatant, IL-6; format: cell-based, human; details: KB cells; the larger the value, the stronger the anti-inflammatory ability; concentration not given
Method: (§1) Anti-inflammatory activity was assessed using the KB cell (the epidermis cancer cell in human oral cavity). During the experiment, the KB cell inoculated in the cultivating plate was treated with or without positive control or compound morusin. After the treatment, the supernatant of the cultivating medium was collected and stored in −80° C. refrigerator. Inflammation was assessed by measuring several inflammation markers: Prostaglandin E2 (PGE2) in the supernatant was detected by Enzyme-linked immunsorbent assay, and LUMINEX™ multifunctional liquid-phase chip analysis system was used for the detection of granulocyte […] colony stimulating factor (GM-CSF), tumor necrosis factor-alpha (TNF-α), and interleukins 1-beta and 6 (IL-1β and IL-6).
(§2) LUMINEX™ multifunctional liquid-phase chip analyses of GM-CSF, TNF-α, IL-1 and IL-6: The 96-well plate was enclosed with enclosing liquid for 30 minutes. Fluorescent microspheres were added into the 96-well plate after dilution. The standard and the samples to be measured were added, and incubated overnight at 4° C. The next day, the supernatant was discarded and 50 μL GM-CSF, TNF-α, IL-1β and IL-6 antibodies were added to each well. After being rinsed for 4 times, the 96-well plate was placed in a shaking table, which was in ambient temperature, to keep the plate away from light for 1 hour. […]

Prostaglandin E2 (PGE2) = assay: PGE2 enzyme-linked immunosorbent assay in KB cell supernatant; format: cell-based, human; details: oral KB cell, PGE2 in supernatant by ELISA
Method: as §1

GM-CSF = assay: LUMINEX liquid-phase chip analysis of KB cell supernatant, GM-CSF; format: cell-based, human; details: KB cells; the larger the value, the stronger the anti-inflammatory ability; concentration not given
Method: as §1, §2

[1] = system: TNF-α (Tumor Necrosis Factor); assay: LUMINEX liquid-phase chip analysis of KB cell supernatant, TNF-α; format: cell-based, human; details: KB cells; the larger the value, the stronger the anti-inflammatory ability; concentration not given
Method: as §1, §2

[2] = system: Actinomyces viscosus (A. v) ATCC 27044; assay: MIC by micro-dilution method; format: cell-based; details: no unit in table; dilution series 250-0.12 mg/L, ceiling 250 ppm; 37°C, 18-24 h
Method: (§3) A single colony was picked from the Trypticase Digested Soybean peptone agar blood plate (TSA5B) of ordinarily stored bacteria species and used to inoculate corresponding broth culture medium, which was cultivated in a microaerobic environment (P.g needs anaerobic cultivation) with 95% air, 5% CO2 at 37.0° C.±1.0° C., wherein S.m was cultivated for 18-24 h, and the species were cultivated for 40-48 h. Then corresponding broth cultivate medium was used to adjust the turbidity of the bacteria suspension to 0.5^# McFarland standard, equivalent to 1.0×10^8 CFU/mL.
(§4) The operating steps were:
(§5) a. Preparation of the stock solution of antibacterial pharmaceutical: 1% stock solution of various antibacterial pharmaceuticals was prepared with 100% pure ethanol as solvent. The prepared stock solution was filtered to eliminate bacteria, and was distributed into small portions to be used.
(§6) b. Range of measured concentration: the present experiment used 250 ppm as the ceiling measured concentration of the anti-bacterial pharmaceutical.
(§7) c. Measuring method: micro-dilution method.
(§8) First, 100 μL broth medium was added to each well of the 96-well plate, then 100 μL sterile anti-bacteria pharmaceutical solution, which was diluted 10-fold (1000 mg/L), was added to each hole of the first column. Then each well of the first column was mixed repeatedly for 7-8 times using a multi-channel micropipet, and 100 μL sample was transferred to the second column after sufficiently mixing the pharmaceutical with TSB. After being similarly mixed for 7-8 times, 100 μL sample was transferred to the third column, and likewise to the wells of the remaining columns. Thus the concentration of the pharmaceutical was gradiently diluted 2-fold between the columns, from 500 mg/L in the first column to 0.24 mg/L in the last column (the 12th column).
(§9) The bacteria to be tested and standard bacteria were prepared as above. Both bacteria solutions were diluted with broth medium to a bacteria content of about 10^6 CFU/mL. Then 100 μL was inoculated into each well of the 96-well plate containing the anti-bacterial pharmaceutical. Thus the final diluted concentrations of the anti-bacteria pharmaceutical in each column were 250, 125, 62.5 . . . 0.12 mg/L, and the final inoculation quantity is about […] in each well. The 96-well plate was placed on a microshaker and shaken for 1 min to mix the solutions in each well. The microwell plate was covered and sealed with adhesive paper to reduce the evaporation during the incubation process. The plate was placed in a humid box, cultivated in microaerobic environment with 95% air, 5% CO2 (or in anaerobic environment with 90% N2, 5% H2, 5% CO2) at 37.0° C.±1.0° C. for 18-24 h. The 96-well plate is placed under an enzyme-labeling instrument. The growth characteristics of the tested bacteria were compared with the standard bacteria to determine the MIC, which was the lowest anti-bacterial pharmaceutical concentration contained in the well without bacterial growth.

[3] = system: Porphyromonas gingivalis (P. g) ATCC 33277; assay: MIC by micro-dilution method; format: cell-based; details: no unit in table; dilution series 250-0.12 mg/L, ceiling 250 ppm; anaerobic, 37°C, 18-24 h
Method: as §3, §4, §5, §6, §7, §8, §9

[4] = system: Actinobacillus actinomycetemcomitans (A. a) ATCC 43717; assay: MIC by micro-dilution method; format: cell-based; details: no unit in table; dilution series 250-0.12 mg/L, ceiling 250 ppm; 37°C, 18-24 h
Method: as §3, §4, §5, §6, §7, §8, §9

[5] = system: Actinomyces naeslundii (A. n) ATCC 12104; assay: MIC by micro-dilution method; format: cell-based; details: no unit in table; dilution series 250-0.12 mg/L, ceiling 250 ppm; 37°C, 18-24 h
Method: as §3, §4, §5, §6, §7, §8, §9

[6] = system: Streptococcus sanguis (S. sa) ATCC 10556; assay: MIC by micro-dilution method; format: cell-based; details: no unit in table; dilution series 250-0.12 mg/L, ceiling 250 ppm; 37°C, 18-24 h
Method: as §3, §4, §5, §6, §7, §8, §9

[7] = system: Fusobacterium nucleatum subsp. Polymorphum (F. n) ATCC 10953; assay: MIC by micro-dilution method; format: cell-based; details: no unit in table; dilution series 250-0.12 mg/L, ceiling 250 ppm; 37°C, 18-24 h
Method: as §3, §4, §5, §6, §7, §8, §9

[8] = system: Streptococcus mutans (S. m) ATCC 25175; assay: MIC by micro-dilution method; format: cell-based; details: no unit in table; dilution series 250-0.12 mg/L, ceiling 250 ppm; 37°C, 18-24 h
Method: as §3, §4, §5, §6, §7, §8, §9

IL-1β (interleukin) = assay: LUMINEX liquid-phase chip analysis of KB cell supernatant, IL-1β; format: cell-based, human; details: KB cells; the larger the value, the stronger the anti-inflammatory ability; concentration not given
Method: as §1, §2

Structure (SMILES)	anti-inflammatory effect, IL-6 (interleukin) (IL-6 (interleukin)) [%]	50% inhibitory concentration (Prostaglandin E2 result) (Prostaglandin E2 (PGE2)) [ppm]	anti-inflammatory effect, GM-CSF (GM-CSF) [%]	anti-inflammatory effect, TNF-α (Tumor Necrosis Factor) [1] [%]	MIC, A. v ATCC 27044 [2]	MIC, P. g ATCC 33277 [3]	MIC, A. a ATCC 43717 [4]	MIC, A. n ATCC 12104 [5]	MIC, S. sa ATCC 10556 [6]	MIC, F. n ATCC 10953 [7]	MIC, S. m ATCC 25175 [8]	anti-inflammatory effect, IL-1β (interleukin) (IL-1β (interleukin)) [%]
CC(C)=CCc1c(-c2ccc(O)cc2O)oc2c3c(cc(O)c2c1=O)OC(C)(C)C=C3 [Morusin, 2-(2,4-dihydroxyphenyl)-5-hydroxy-8,8-dimethyl-3-(3-methyl-2-butenyl)-4H,8H-Benzo(1,2-b:3,4-b′)dipyran-4-one]	49	0.02	9	91	2.4	1.9	2.4	1.9	3.9	15.6	3.9	20
Oc1cc(Cl)ccc1Oc1ccc(Cl)cc1Cl [Triclosan]	31	~0.02	5	81	3.9	7.8	1.95	3.9	7.8	7.8	3.9	7
